Reference: the supplement of paper PMC10307832

Experiments:
Experiment in all cases: relative viability (nuclei count vs DMSO), 5 days (fraction); higher = more cells survive
[1] = compound: CC1=C(C(=NN1)C)CC2=C(C3=C(S2)N(C(=O)N(C3=O)C)CC(C)C)C(=O)N4C[C@@H](CO4)O
Outline: (§1)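 Vehicle-anchored 1536-well plates of lung cancer cell lines, held overnight at 37 °C, were pinned with five library-drug doses (not always all listed) spaced by √10. No medium change followed over the next 5 days, after which the cells were fixed, permeabilised and Hoechst-stained together and imaged at 4×. Nuclei were counted with MetaXpress, and viability is treated-well nuclei over vehicle-well nuclei, taken as a median across plates. Plates passed with control CV below 25% and at least one doubling.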

[2] = compound: Cc1ccccc1C(C(=O)NC1CCCCC1)N(C(=O)Cn1ccnc1C)c1cccc(F)c1 [IDH-C35]
Outline: as §1

[3] = compound: CC1=C(C(=NN1)C)CC2=C(C3=C(S2)N(C(=O)N(C3=O)C)CC(C)C)C(=O)N4C[C@@H](CO4)O + CC1(C)CCC(c2ccc(Cl)cc2)=C(CN2CCN(c3ccc(C(=O)NS(=O)(=O)c4ccc(N[C@H](CCN5CCOCC5)CSc5ccccc5)c(S(=O)(=O)C(F)(F)F)c4)cc3)CC2)C1 [Navitoclax] (partner 0.5 µM)
Outline: (§2)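 Lung cancer cell lines in 1536-well plates were dosed by pin tool the day after seeding, either with one drug alone or with a fixed anchor-drug dose plus five library-drug doses (not always all listed) in √10 steps. After 5 days, cells were fixed and their nuclei stained in one step (final 0.05% Triton X-100, 1% formaldehyde, 1 ug/ml Hoechst), then counted on 4× images. Relative viability is the nuclei count in treated wells divided by that in vehicle wells. Values are medians of duplicate plates.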

[4] = compound: Cc1ccccc1C(C(=O)NC1CCCCC1)N(C(=O)Cn1ccnc1C)c1cccc(F)c1 [IDH-C35] + N=C(N)NC(=N)NCCc1ccccc1 [Phenformin] (partner 250 µM)
Outline: as §2

Cell Line	relative viability ([1]; 0.0025 µM)	relative viability ([1]; 0.007906 µM)	relative viability ([1]; 0.025 µM)	relative viability ([1]; 0.07906 µM)	relative viability ([1]; 0.25 µM)	relative viability ([2]; 0.08 µM)	relative viability ([2]; 0.253 µM)	relative viability ([2]; 0.8 µM)	relative viability ([2]; 2.53 µM)	relative viability ([2]; 8 µM)	relative viability ([3]; first compound 0.0025 µM)	relative viability ([3]; first compound 0.007906 µM)	relative viability ([3]; first compound 0.025 µM)	relative viability ([3]; first compound 0.07906 µM)	relative viability ([3]; first compound 0.25 µM)	relative viability ([4]; first compound 0.08 µM)	relative viability ([4]; first compound 0.253 µM)	relative viability ([4]; first compound 0.8 µM)	relative viability ([4]; first compound 2.53 µM)	relative viability ([4]; first compound 8 µM)
LK-2	1	1.03	0.818	0.804	0.898	0.881	0.995	0.996	0.998	0.943	0.884	0.852	0.746	0.983	0.949	0.564	0.474	0.476	0.27	0.623
201T	1.04	0.983	0.982	0.96	0.988	0.985	0.983	1.01	1	0.958	1.22	1.22	1.17	1.14	1.21	0.469	0.431	0.436	0.466	0.438
HCC-44	1.01	1.01	0.992	0.931	1.05	0.949	0.947	0.971	0.998	0.942	0.925	1.08	1.04	0.892	1.19	0.227	0.293	0.254	0.166	0.182
NCI-H596	1.09	1.13	0.978	1.04	1.11	0.884	0.938	0.972	0.925	1.01	1.06	1.16	0.931	1.01	1.16	0.781	0.819	0.705	–	0.786
H3255	1.01	0.925	0.866	0.94	1.1	0.955	1	0.988	0.978	1.11	0.562	0.542	0.516	0.487	0.568	0.381	0.38	0.365	0.363	0.344
NCI-H647	1.03	1.1	0.932	0.915	0.934	1.03	0.94	0.972	0.936	0.949	1.15	1.43	1.01	1.32	1.42	0.425	0.446	0.626	0.55	0.491
NCI-H2023	1.03	1.09	0.934	0.976	1.03	0.981	1.08	0.959	0.981	0.994	0.981	0.946	0.957	0.979	0.986	0.405	0.376	0.404	0.41	0.351
NCI-H23	1.01	1.05	0.867	0.975	1.09	1	1.04	0.95	0.806	0.859	0.908	0.904	0.807	1.02	0.901	0.824	0.746	0.788	0.756	0.705
NCI-H1944	1.04	1.1	0.982	0.933	0.944	1.01	1.07	0.927	0.941	0.976	1.03	1.04	1.08	1.08	1.02	0.212	0.183	0.202	0.18	0.192
NCI-H1793	0.94	0.995	1	0.886	0.686	0.961	0.874	0.844	0.859	0.994	0.617	0.415	0.411	0.435	0.501	0.399	0.418	0.399	–	0.337
NCI-H520	1.03	0.914	0.644	0.79	0.628	1.01	1.05	0.87	0.91	1	1.22	1.16	0.654	0.558	0.683	0.588	0.665	0.652	0.525	0.699
A549	1.04	1.11	0.931	0.953	1.04	1	0.966	0.956	0.918	0.974	1.32	1.27	1.14	1.32	1.24	0.188	0.189	0.151	–	0.19
NCI-H460	1.02	1.08	0.955	0.968	1.06	1.01	0.99	1.01	0.957	0.94	1.19	1.26	0.994	1.13	1.34	0.547	0.527	0.502	0.488	0.531
EKVX	1.08	1.03	0.952	0.883	0.989	0.991	0.991	0.922	0.861	0.997	1	1.04	0.988	0.907	0.933	0.245	0.219	0.227	0.229	0.189
EPLC-272H	1.02	0.906	0.968	0.974	1.01	0.935	1.04	0.898	0.76	0.882	1.17	1.26	1.07	1.08	1.28	0.33	0.275	0.314	0.294	0.296
NCI-H1395	0.962	0.841	0.713	0.795	0.719	0.942	0.866	0.929	0.877	0.882	1.09	0.931	1.01	0.859	0.886	0.45	0.477	0.498	0.396	0.44
